“Also recorded” adds a separate entry of the source.
What was measured:
Assay type in all cases: binding
[1] = tested on: tested galectin molecules (galectin-1, 3, 8N, 8C, 9N and 9C); assay: FAC affinity test, statements on the whole panel of tested galectins; conditions: Table 3, whole galectin panel
From the text: Using FAC, the present inventors have conducted a comprehensive analysis of the interactions between various galectin molecules (galectin-1, 3, 8N, 8C, 9N and 9C; N and C respectively represent N-terminal side carbohydrate-recognition domain and C-terminal side carbohydrate-recognition domain)-immobilized columns and various fluorescence-labeled glycosaminoglycan molecules. As a result, novel affinity was found by the combination of specific galectin molecules and glycosaminoglycan molecules to thereby accomplish the present invention.
(§1) A high performance liquid chromatography (HPLC) system was equipped with a galectin molecule-immobilized column, and the test was carried out by the method described in Nakamura S, Yagi F, Totani K, Ito γ and Hirabayashi J in FEBS J., 272, 2784-2799 (2005).
(§2) As the negative control sample, pyridyl-aminated N-acetylglucosamine (PA-GlcNAc, manufactured by Takara Bio, pyridyl-aminated glycosaminoglycan-oligosaccharide sample control) or pyridyl-aminated pullulan (prepared by carrying out pyridylamination of standard pullulan manufactured by Shodex, pyridyl-aminated glycosaminoglycan polysaccharide sample control) was used, and a V−V0 value was calculated from their eluate volume (V0 value) measured by fluorescence detection and the eluate volume (V value) of the sample, namely pyridyl-aminated glycosaminoglycan carbohydrate, and this was used as the index of interaction strength (Protein, Nucleic Acid and Enzyme, 48(8), 1206-1212 (2003)).
(§3) In this connection, when the calculated value of the V−V0 value was less than 5 μl, it was regarded as less than the interaction detection limit in this example.

[2] = molecular target: T1, Galectin-8C (Homo sapiens, UniProt O00214); assay: FAC affinity test on galectin-immobilized column; conditions: pyridyl-aminated carbohydrate; galectin-8C immobilized 4.0 mg/ml; less than 5 μl = below interaction detection limit
T1 construct: N and C respectively represent N-terminal side carbohydrate-recognition domain and C-terminal side carbohydrate-recognition domain; made in house
T1 sequence (O00214 187-317 limits assumed): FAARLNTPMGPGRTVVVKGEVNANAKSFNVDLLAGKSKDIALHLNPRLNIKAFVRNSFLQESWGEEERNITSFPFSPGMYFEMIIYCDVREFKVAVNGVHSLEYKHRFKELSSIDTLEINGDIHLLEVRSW
Procedure: (§4) Various galectin molecules-immobilized columns were prepared by the method described by Nakamura S, Yagi F, Totani K, Ito γ and Hirabayashi J in FEBS J., 272, 2784-2799 (2005), using NHS Sepharose (manufactured by Amersham Bioscience) as the carrier for immobilizing galectin molecules and in accordance with the instructions attached thereto (put in parentheses is immobilization concentration, mg galectin/ml carrier).
(§5) Each galectin molecule was immobilized onto the carrier at the following concentration; galectin-1 (0.8 mg/ml), galectin-3 (0.5 mg/ml), galectin-8N (3.6 mg/ml), galectin-8C (4.0 mg/ml), galectin-9N (3.6 mg/ml), galectin-9C (3.0 mg/ml). The carrier on which each galectin was immobilized was charged into a stainless steel miniature column (2 mm in inner diameter, 10 mm in length; manufactured by Shimadzu Corp.).
as §1, §2
(§6) V−V0 values of pyridyl-aminated glycosaminoglycans (HA, CH, DN, NAH, CSA, CSB, CSC, CSD, CSE, KS-I and KS-II) were calculated based on PA-GlcNAc, and V−V0 values of pyridyl-aminated glycosaminoglycan-oligosaccharides (G2K1, G1L1, G4L4, L2L2, L2L4, L4L4, SL2L4 and CH3 to CH12) based on pyridyl-aminated pullulan, respectively.
as §3

[3] = molecular target: T2, Galectin-8N (Homo sapiens, UniProt O00214); assay: FAC affinity test on galectin-immobilized column; conditions: for V − V0 Value: pyridyl-aminated carbohydrate, galectin-8N immobilized 3.6 mg/ml, less than 5 μl = below interaction detection limit
T2 construct: N and C respectively represent N-terminal side carbohydrate-recognition domain and C-terminal side carbohydrate-recognition domain; made in house
T2 sequence (O00214 19-152 limits assumed): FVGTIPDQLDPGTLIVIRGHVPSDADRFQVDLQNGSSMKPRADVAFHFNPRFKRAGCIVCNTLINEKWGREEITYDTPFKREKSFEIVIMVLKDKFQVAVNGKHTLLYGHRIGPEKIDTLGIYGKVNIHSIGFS
Procedure: as §4, §5, §1, §2, §6, §3

[4] = molecular target: T3, Galectin-9N (Homo sapiens, UniProt O00182); assay: FAC affinity test on galectin-immobilized column; conditions: for V − V0 Value: pyridyl-aminated carbohydrate, galectin-9N immobilized 3.6 mg/ml, less than 5 μl = below interaction detection limit; for binding to galectin-9N (in words): text statement on the FAC results
T3 construct: N and C respectively represent N-terminal side carbohydrate-recognition domain and C-terminal side carbohydrate-recognition domain; made in house
T3 sequence (O00182 17-148 limits assumed): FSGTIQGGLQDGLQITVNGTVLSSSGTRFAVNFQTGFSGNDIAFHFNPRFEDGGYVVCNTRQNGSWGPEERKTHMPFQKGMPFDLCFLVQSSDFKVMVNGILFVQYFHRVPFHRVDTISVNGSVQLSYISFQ
Procedure: as §4, §5, §1, §2, §6, §3

[5] = molecular target: T4, Galectin-1 (Homo sapiens, UniProt P09382); assay: FAC affinity test on galectin-immobilized column; conditions: for V − V0 Value: pyridyl-aminated carbohydrate, galectin-1 immobilized 0.8 mg/ml, less than 5 μl = below interaction detection limit
T4 construct: made in house
T4 sequence (P09382 whole entry): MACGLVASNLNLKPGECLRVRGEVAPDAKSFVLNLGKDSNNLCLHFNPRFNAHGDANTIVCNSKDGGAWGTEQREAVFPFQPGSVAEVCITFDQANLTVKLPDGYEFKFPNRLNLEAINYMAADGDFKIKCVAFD
Procedure: as §4, §5, §1, §2, §6, §3

[6] = molecular target: T5, Galectin-3 (Homo sapiens, UniProt P17931); assay: FAC affinity test on galectin-immobilized column; conditions: for V − V0 Value: pyridyl-aminated carbohydrate, galectin-3 immobilized 0.5 mg/ml, less than 5 μl = below interaction detection limit; for binding to galectin-3 (in words): text statement on the FAC results
T5 construct: made in house
T5 sequence (P17931 whole entry): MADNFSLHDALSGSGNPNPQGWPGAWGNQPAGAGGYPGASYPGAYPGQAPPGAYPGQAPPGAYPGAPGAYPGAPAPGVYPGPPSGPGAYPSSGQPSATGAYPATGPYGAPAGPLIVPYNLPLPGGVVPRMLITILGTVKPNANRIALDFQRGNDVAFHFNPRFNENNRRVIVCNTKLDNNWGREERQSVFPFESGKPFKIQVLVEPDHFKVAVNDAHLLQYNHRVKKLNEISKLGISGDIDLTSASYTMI
Procedure: as §4, §5, §1, §2, §6, §3

[7] = molecular target: T6, Galectin-9C (Homo sapiens, UniProt O00182); assay: FAC affinity test on galectin-immobilized column; conditions: for V − V0 Value: pyridyl-aminated carbohydrate, galectin-9C immobilized 3.0 mg/ml, less than 5 μl = below interaction detection limit; for binding to galectin-9C (in words): text statement on the FAC results
T6 construct: N and C respectively represent N-terminal side carbohydrate-recognition domain and C-terminal side carbohydrate-recognition domain; made in house
T6 sequence (O00182 227-355 limits assumed): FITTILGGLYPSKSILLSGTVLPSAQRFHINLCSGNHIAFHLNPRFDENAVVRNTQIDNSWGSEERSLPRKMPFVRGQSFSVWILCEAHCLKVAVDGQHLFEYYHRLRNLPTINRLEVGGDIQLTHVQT
Procedure: as §4, §5, §1, §2, §6, §3

[8] = text statement on the FAC results

binding to the tested galectin molecules (in words) [1]	V − V0 Value [2] [µL]	V − V0 Value [3] [µL]	V − V0 Value [4] [µL]	V − V0 Value [5] [µL]	V − V0 Value [6] [µL]	V − V0 Value [7] [µL]	binding to galectin-9N (in words) ([4]; listed as chondroitin)	binding to galectin-3 (in words) ([6]; listed as chondroitin)	binding to galectin-8N (in words) [3, 8]	Molecule	binding to galectin-9N (in words) [4]	binding to galectin-3 (in words) [6]	binding to galectin-9C (in words) [7]	binding to galectin-1 (in words) [5, 8]
–	–	–	218.8	–	21.4 ± 4.2	–	–	–	–	CC(=O)NC1C(OC2C(C(=O)O)OC(OC3C(O)C(CO)OC(OC4C(C(=O)O)OC(OC5C(O)C(CO)OC(OC6C(C(=O)O)OC(OC7C(O)C(CO)OC(OC8C(C(=O)O)OC(OC9C(O)C(CO)OC(OC%10C(C(=O)O)OC(OC%11C(O)C(CO)OC(O)C%11NC(C)=O)C(O)C%10O)C9NC(C)=O)C(O)C8O)C7NC(C)=O)C(O)C6O)C5NC(C)=O)C(O)C4O)C3NC(C)=O)C(O)C2O)OC(CO)C(O)C1O (stereo not drawn) [CH11, (GalNAc β1-4 GlcA β1-3)5 GalNAc]	–	–	–	–
–	–	–	196.0	–	16.8 ± 2.1	–	–	–	–	CC(=O)NC1C(O)OC(CO)C(O)C1OC1OC(C(=O)O)C(OC2OC(CO)C(O)C(OC3OC(C(=O)O)C(OC4OC(CO)C(O)C(OC5OC(C(=O)O)C(OC6OC(CO)C(O)C(OC7OC(C(=O)O)C(OC8OC(CO)C(O)C(OC9OC(C(=O)O)C(OC%10OC(CO)C(O)C(OC%11OC(C(=O)O)C(O)C(O)C%11O)C%10NC(C)=O)C(O)C9O)C8NC(C)=O)C(O)C7O)C6NC(C)=O)C(O)C5O)C4NC(C)=O)C(O)C3O)C2NC(C)=O)C(O)C1O (stereo not drawn) [CH12, GlcA β1-3 (GalNAc β1-4 GlcA β1-3)5 GalNAc]	–	–	–	–
–	–	–	49.6 ± 8.2	<5.0	<5.0	–	–	–	–	CC(=O)N[C@H]1[C@H](O[C@H]2[C@H](O)[C@@H](O)[C@H](O[C@H]3[C@@H](O)[C@@H](CO)OC(O)[C@@H]3NC(C)=O)O[C@@H]2C(=O)O)O[C@H](CO)[C@H](O)[C@@H]1O (stereo partly drawn) [CH3, GalNAc β1-4 GlcA β1-3 GalNAc]	–	–	–	–
–	–	–	146.4	<5.0	10.7 ± 1.9	<5.0	–	–	–	CC(=O)N[C@H]1[C@H](O[C@H]2[C@H](O)[C@@H](O)[C@H](O[C@H]3[C@@H](O)[C@@H](CO)O[C@@H](O[C@H]4[C@H](O)[C@@H](O)[C@H](O[C@H]5[C@@H](O)[C@@H](CO)O[C@@H](O[C@H]6[C@H](O)[C@@H](O)[C@H](O[C@H]7[C@@H](O)[C@@H](CO)OC(O)[C@@H]7NC(C)=O)O[C@@H]6C(=O)O)[C@@H]5NC(C)=O)O[C@@H]4C(=O)O)[C@@H]3NC(C)=O)O[C@@H]2C(=O)O)O[C@H](CO)[C@H](O)[C@@H]1O (stereo partly drawn) [CH7, (GalNAc β1-4 GlcA β1-3)3 GalNAc]	–	–	–	–
–	–	–	45.6 ± 4.6	<5.0	<5.0	–	–	–	–	CC(=O)N[C@H]1[C@H](O[C@H]2[C@H](O)[C@@H](O)[C@H](O[C@H]3[C@@H](O)[C@@H](CO)O[C@@H](O[C@H]4[C@H](O)[C@@H](O)[C@H](O[C@H]5[C@@H](O)[C@@H](CO)OC(O)[C@@H]5NC(C)=O)O[C@@H]4C(=O)O)[C@@H]3NC(C)=O)O[C@@H]2C(=O)O)O[C@H](CO)[C@H](O)[C@@H]1O (stereo partly drawn) [CH5, (GalNAc β1-4 GlcA β1-3)2 GalNAc]	–	–	–	–
–	–	–	116.2	<5.0	7.8 ± 1.9	<5.0	–	–	–	CC(=O)N[C@H]1[C@H](O[C@H]2[C@H](O)[C@@H](O)[C@H](O[C@H]3[C@@H](O)[C@@H](CO)O[C@@H](O[C@H]4[C@H](O)[C@@H](O)[C@H](O[C@H]5[C@@H](O)[C@@H](CO)O[C@@H](O[C@H]6[C@H](O)[C@@H](O)[C@H](O[C@H]7[C@@H](O)[C@@H](CO)OC(O)[C@@H]7NC(C)=O)O[C@@H]6C(=O)O)[C@@H]5NC(C)=O)O[C@@H]4C(=O)O)[C@@H]3NC(C)=O)O[C@@H]2C(=O)O)O[C@H](CO)[C@H](O)[C@@H]1O[C@@H]1O[C@H](C(=O)O)[C@@H](O)[C@H](O)[C@H]1O (stereo partly drawn) [CH8, GlcA β1-3 (GalNAc β1-4 GlcA β1-3)3 GalNAc]	–	–	–	–
–	–	–	199.4	<5.0	15.6 ± 2.5	<5.0	–	–	–	CC(=O)NC1C(OC2C(C(=O)O)OC(OC3C(O)C(CO)OC(OC4C(C(=O)O)OC(OC5C(O)C(CO)OC(OC6C(C(=O)O)OC(OC7C(O)C(CO)OC(OC8C(C(=O)O)OC(OC9C(O)C(CO)OC(O)C9NC(C)=O)C(O)C8O)C7NC(C)=O)C(O)C6O)C5NC(C)=O)C(O)C4O)C3NC(C)=O)C(O)C2O)OC(CO)C(O)C1O (stereo not drawn) [CH9, (GalNAc β1-4 GlcA β1-3)4 GalNAc]	–	–	–	–

Further lines, the molecule ahead of its results:

Molecule	binding to the tested galectin molecules (in words) [1]	V − V0 Value [2] [µL]	V − V0 Value [3] [µL]	V − V0 Value [4] [µL]	V − V0 Value [5] [µL]	V − V0 Value [6] [µL]	V − V0 Value [7] [µL]	binding to galectin-9N (in words) ([4]; listed as chondroitin)	binding to galectin-3 (in words) ([6]; listed as chondroitin)	binding to galectin-8N (in words) [3, 8]	binding to galectin-9N (in words) [4]	binding to galectin-3 (in words) [6]	binding to galectin-9C (in words) [7]	binding to galectin-1 (in words) [5, 8]
N-acetylheparosan [NAH, reference compound]	did not bind	<5.0	<5.0	<5.0	<5.0	<5.0	<5.0	–	–	–	–	–	–	–
dermatan sulfate [CSB, reference compound]	did not bind	<5.0	<5.0	<5.0	<5.0	<5.0	<5.0	–	–	–	–	–	–	–
chondroitin sulfate E [CSE, reference compound]	did not bind	<5.0	<5.0	<5.0	<5.0	<5.0	<5.0	–	–	–	–	–	–	–
cartilage type keratan sulfate [KS-II]	–	<5.0	<5.0	10.4 ± 0.3	<5.0	10.1 ± 1.1	6.4 ± 1.0	–	–	–	weaker than their binding with KS-I; also recorded: showed binding affinity	weaker than their binding with KS-I; also recorded: showed binding affinity	weaker than their binding with KS-I; also recorded: showed binding affinity	–
Chondroitin	–	<5.0	<5.0	171.4 ± 19.0	<5.0	19.2 ± 2.2	<5.0	particularly strong binding affinity	length-dependent binding affinity	–	bind	bind	–	–
cornea type keratan sulfate [KS-I]	–	<5.0	<5.0	105.3 ± 22.6	10.3 ± 4.5	21.7 ± 4.3	12.2 ± 1.0	–	–	showed binding affinity	bound; also recorded: showed binding affinity	bound; also recorded: showed binding affinity	bound; also recorded: showed binding affinity	bound; also recorded: showed binding affinity
